Experimental data as given in US20100273694A1, “SURFACTANT COMPOSITION METHOD FOR PRODUCTION THEREOF AND COSMETIC COMPRISING SAID COMPOSITION” (EIFFAGE TRAVAUX PUBLICS, priority 2004, published 2010).

Experiment: Measurement of surface tension and critical micellar concentrations (rising drop tensiometer)
Format: physicochemical
Conditions: rising drop method; for CMC: critical micellar concentration; for γcmc: surface tension at the CMC
Description: The tensiometric measurements were carried out with a drop tensiometer operating by the method of the rising drop ([…] tensiometer, I.T. CONCEPT).

| CMC | γcmc [mN/m] | Molecule |
| --- | --- | --- |
| 1.10^−4 M | 36.6 | 9-octadecenyl betaine mesylate [Esters C18:1] |
| 0.008 M | 30.0 | CCCCCCCCCCCCOS(=O)(=O)[O-].[Na+] [SDS (C12), sodium dodecyl sulphate, reference compound] |
| 0.00014 M | 36.0 | betainylaminooctadecane mesylate [Amides C18:0] |
| 0.00012 M | 36.2 | betainylaminooctadecenyl mesylate [Amides C18:1] |
| 8.10^−4 M | 37.2 | octadecyl betaine mesylate [Esters C18:0] |
